# Molecular target: T1, human URAT1 (Homo sapiens, UniProt Q96S37)
# T1 construct: Human URAT1 full length cDNA was subcloned to expression vector pcDNA3.1; expressed in transfected cells; host or cells: HEK293 cells (pcDNA3.1, geneticin-selected)
# T1 sequence (Q96S37 1-553): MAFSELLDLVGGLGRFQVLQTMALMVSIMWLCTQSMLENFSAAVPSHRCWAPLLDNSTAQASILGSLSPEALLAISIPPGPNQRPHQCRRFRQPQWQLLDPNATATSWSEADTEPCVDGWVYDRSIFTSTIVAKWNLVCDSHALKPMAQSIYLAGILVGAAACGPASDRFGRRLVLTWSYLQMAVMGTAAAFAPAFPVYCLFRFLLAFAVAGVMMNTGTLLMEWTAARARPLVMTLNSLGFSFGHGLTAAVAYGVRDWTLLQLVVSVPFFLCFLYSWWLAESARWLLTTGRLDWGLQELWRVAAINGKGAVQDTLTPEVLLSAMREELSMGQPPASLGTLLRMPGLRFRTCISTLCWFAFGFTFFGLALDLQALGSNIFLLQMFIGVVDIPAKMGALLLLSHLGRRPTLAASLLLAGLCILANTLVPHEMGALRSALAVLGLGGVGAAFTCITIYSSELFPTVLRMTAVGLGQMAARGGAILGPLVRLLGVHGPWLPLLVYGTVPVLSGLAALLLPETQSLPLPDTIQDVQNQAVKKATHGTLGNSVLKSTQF
# Assay: Uric acid transport inhibitory test using human URAT1-expressing cells
# Type: cell-based
# Conditions: human URAT1 expressing HEK293 cells, uptake of 14C-labeled uric acid for 5 min, room temperature; read-out: hURAT1 (IC50, concentration necessary for inhibiting the uric acid transport rate by 50%)
# Text: Reference Experimental Example 1 Uric Acid Transport Inhibitory Test Using Human Urat1-Expressing Cells
# Human URAT1 full length cDNA was subcloned to expression vector pcDNA3.1 and human URAT1 gene was transfected into human embryonic kidney derived cell line (HEK293 cells) by liposome method using Lipofectamine2000. Simultaneously, HEK293 cells transfected with expression vector pcDNA3.1 alone (hereinafter mock cells) were also produced. HEK293 cells expressing human URAT1 gene or mock cells were selected with geneticin resistance as an index. The functional expression of human URAT1 gene was confirmed by a method similar to the following method, using transport of uric acid labeled with ^14C into the cells as an index.
# Human URAT1 expressing HEK293 cells or mock cells were cultured in Dulbecco's modified Eagle's MEM medium (high glucose) containing 10% fetal bovine serum, 0.5 mg/mL geneticin sulfate, 100 units/mL penicillin and 100 μg/mL streptomycin under the conditions of 37° C. and 5% CO2 in an incubator. The cells were plated in a 96 well plate (poly-D-Lysine coated) at 1×10^5 cells/well and the following uric acid transport inhibitory test was performed 24 hr later. This test was performed at room temperature.
# After the medium was removed by aspiration from each well, the cells were washed once with Hank's Balanced Salt Solution (HBSS) and preincubated with HBSS ([…]) for 5 min. HBSS was aspirated and an assay buffer (wherein NaCl in the above-mentioned HBSS had been substituted with Na-gluconate) containing various concentrations of the Example compound and a radioactive ligand (uric acid labeled with 14C; final concentration […]) was added to each well at […] and an uptake reaction was carried out for 5 min. After the reaction, the cells were washed twice with ice-cold HBSS ([…]), and Microscin ti TM 20 (PerkinElmer) was added at […]. The cells were lysed by stirring and the radioactivity of each well was measured in a liquid scintillation counter (TOP COUNT, Packard).
# The uric acid transport rate (%) of the Example compound at each concentration was calculated relative to the radioactivity (difference in radioactivity between human URAT1 expressing HEK293 cells and mock cells without addition of Example compound (DMSO addition)) showing URAT1 specific uric acid transport as 100%, and the concentration (IC50) of the Example compound necessary for inhibiting the uric acid transport rate by 50% was determined. In Table-Table, “+++” means IC50 value of less than 100 nM, “++” means IC50 value of 100 nM to less than 1000 nM, and “+” means IC50 value of 1000 nM to less than 3000 nM.
row,IC50 [µM],Compound
1,0.1 to 1,"Nc1ccc2c(c1)N(C(=O)c1cc(Cl)c(O)c(Cl)c1)CCO2 [Example 68, (6-amino-2,3-dihydrobenzo[1,4]oxazin-4-yl)-(3,5-dichloro-4-hydroxyphenyl)-methanone]"
2,< 0.1,"O=C(c1cc(Br)c(O)c(Br)c1)N1CCOc2ccc([N+](=O)[O-])cc21 [Example 69, (3,5-dibromo-4-hydroxyphenyl)-(6-nitro-2,3-dihydrobenzo[1,4]oxazin-4-yl)-methanone]"
3,0.1 to 1,"O=C(c1cc(Cl)c(O)c(Cl)c1)N1CCOc2cc([N+](=O)[O-])ccc21 [Example 70, (3,5-dichloro-4-hydroxyphenyl)-(7-nitro-2,3-dihydrobenzo[1,4]oxazin-4-yl)-methanone]"
4,1 to 3,"Nc1ccc2c(c1)OCCN2C(=O)c1cc(Cl)c(O)c(Cl)c1 [Example 71, (7-amino-2,3-dihydrobenzo[1,4]oxazin-4-yl)-(3,5-dichloro-4-hydroxyphenyl)-methanone]"
5,0.1 to 1,"CC(=O)N1CCN(C(=O)c2cc(Cl)c(O)c(Cl)c2)c2ccccc21 [Example 73, 1-[4-(3,5-dichloro-4-hydroxybenzoyl)-3,4-dihydro-2H-quinoxalin-1-yl]-ethanone]"
6,0.1 to 1,"CN1CCN(C(=O)c2cc(Cl)c(O)c(Cl)c2)c2ccccc21 [Example 74, (3,5-dichloro-4-hydroxyphenyl)-(4-methyl-3,4-dihydro-2H-quinoxalin-1-yl)-methanone]"
7,0.1 to 1,"O=C(c1ccc(O)c([N+](=O)[O-])c1)N1CCOc2ccccc21 [Example 75, (2,3-dihydrobenzo[1,4]oxazin-4-yl)-(4-hydroxy-3-nitrophenyl)-methanone]"
8,0.1 to 1,"O=C(c1cc(Cl)c(O)c(Cl)c1)N1CCc2ccccc21 [Example 77, (3,5-dichloro-4-hydroxyphenyl)-(2,3-dihydroindol-1-yl)-methanone]"
9,0.1 to 1,"Nc1ccc2c(c1)CCN2C(=O)c1cc(Cl)c(O)c(Cl)c1 [Example 78, (5-amino-2,3-dihydroindol-1-yl)-(3,5-dichloro-4-hydroxyphenyl)-methanone]"
10,< 0.1,"O=C(c1cc(Br)c(O)c(Br)c1)N1CCOc2ccc(F)cc21 [Example 79, (3,5-dibromo-4-hydroxyphenyl)-(6-fluoro-2,3-dihydrobenzo[1,4]oxazin-4-yl)-methanone]"
11,< 0.1,"O=C(c1cc(Br)c(O)c(Br)c1)N1CCOc2ccc3ccccc3c21 [Example 80, (3,5-dibromo-4-hydroxyphenyl)-(2,3-dihydronaphtho[2,1-b][1,4]oxazin-1-yl)-methanone]"
12,< 0.1,"Cc1ccc2c(c1)N(C(=O)c1cc(Br)c(O)c(Br)c1)CCO2 [Example 81, (3,5-dibromo-4-hydroxyphenyl)-(6-methyl-2,3-dihydrobenzo[1,4]oxazin-4-yl)-methanone]"
13,< 0.1,"O=C(c1cc(Br)c(O)c(Br)c1)N1CCOc2ccc(Cl)cc21 [Example 82, (6-chloro-2,3-dihydrobenzo[1,4]oxazin-4-yl)-(3,5-dibromo-4-hydroxyphenyl)-methanone]"
14,0.1 to 1,"CS(=O)(=O)N1CCN(C(=O)c2cc(Cl)c(O)c(Cl)c2)c2ccccc21 [Example 83, (3,5-dichloro-4-hydroxyphenyl)-(4-methanesulfonyl-3,4-dihydro-2H-quinoxalin-1-yl)-methanone]"
15,1 to 3,"CCS(=O)(=O)c1ccc2c(c1)N(C(=O)c1cc(Cl)c(O)c(Cl)c1)CCO2 [Example 84, (3,5-dichloro-4-hydroxyphenyl)-(6-ethanesulfonyl-2,3-dihydrobenzo[1,4]oxazin-4-yl)-methanone]"
16,< 0.1,"O=C(c1cc(Cl)c(O)c(Cl)c1)N1CCOc2ccc(C(F)(F)F)cc21 [Example 85, (3,5-dichloro-4-hydroxyphenyl)-(6-trifluoromethyl-2,3-dihydrobenzo[1,4]oxazin-4-yl)-methanone]"
17,1 to 3,"COc1c(Cl)cc(C(=O)N2CCOc3ccccc32)cc1Cl [Example 86, (3,5-dichloro-4-methoxyphenyl)-(2,3-dihydrobenzo[1,4]oxazin-4-yl)-methanone]"
18,0.1 to 1,"CC(=O)Oc1c(Cl)cc(C(=O)N2CCOc3ccccc32)cc1Cl [Example 87, 2,6-dichloro-4-(2,3-dihydrobenzo[1,4]oxazine-4-carbonyl)-phenyl acetate]"
19,< 0.1,"O=C(c1cc(Cl)c(O)c(Cl)c1)N1CCOc2cccc(O)c21 [Example 89, (3,5-dichloro-4-hydroxyphenyl)-(5-hydroxy-2,3-dihydrobenzo[1,4]oxazin-4-yl)-methanone]"
20,0.1 to 1,"O=C(c1cc(Cl)c(O)c(Cl)c1)N1CCOc2c(O)cccc21 [Example 90, (3,5-dichloro-4-hydroxyphenyl)-(8-hydroxy-2,3-dihydrobenzo[1,4]oxazin-4-yl)-methanone]"
21,1 to 3,"CCOC(=O)COc1c(Cl)cc(C(=O)N2CCOc3ccccc32)cc1Cl [Example 91, ethyl [2,6-dichloro-4-(2,3-dihydrobenzo[1,4]oxazine-4-carbonyl)phenoxy]acetate]"
22,0.1 to 1,O=C(c1cc(Cl)c(O)c(Cl)c1)N1CCCOc2ccccc21 [Example 94]
23,0.1 to 1,"O=C(c1cc(Cl)c(O)c(Cl)c1)N1CCCOc2ccccc21 [Example 95, (3,5-dichloro-4-hydroxyphenyl)-(7,8-dihydro-6H-5-oxa-9-azabenzocyclohepten-9-yl)-methanone]"

# Molecular target: T2, CYP2C9 (Homo sapiens, UniProt P11712)
# T2 construct: Human liver microsome (20 mg protein/mL, 5 μL, Xenotech LLC, purchased from Lenexa Kans.); tissue Xenotech LLC; host or cells: human liver microsome
# T2 sequence (P11712 whole entry): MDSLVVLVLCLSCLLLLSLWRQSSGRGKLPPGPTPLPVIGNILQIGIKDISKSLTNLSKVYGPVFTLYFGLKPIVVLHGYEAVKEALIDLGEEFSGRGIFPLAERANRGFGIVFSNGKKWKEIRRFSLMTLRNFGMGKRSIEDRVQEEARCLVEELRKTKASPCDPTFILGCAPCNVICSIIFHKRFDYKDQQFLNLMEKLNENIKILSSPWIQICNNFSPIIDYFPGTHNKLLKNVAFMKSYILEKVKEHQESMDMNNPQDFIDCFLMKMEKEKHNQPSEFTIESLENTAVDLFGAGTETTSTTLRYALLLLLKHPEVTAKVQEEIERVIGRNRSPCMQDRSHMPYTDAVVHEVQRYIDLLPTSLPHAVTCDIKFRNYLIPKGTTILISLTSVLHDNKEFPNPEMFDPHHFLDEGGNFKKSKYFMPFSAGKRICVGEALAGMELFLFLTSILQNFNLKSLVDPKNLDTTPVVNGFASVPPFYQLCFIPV
# Assay: CYP inhibitory test using human liver microsome
# Type: in vitro ADME
# Conditions: human liver microsomes, pH 7.4, probe diclofenac, model substrate diclofenac, 37° C. 10 min, LC/MS/MS, read-out: CYP2C9 inhibition IC50
# Description: Reference Experimental Example 2 Cyp Inhibitory Test Using Human Liver Microsome
# Human liver microsome (20 mg protein/mL, 5 μL, Xenotech LLC, purchased from Lenexa Kans.) was suspended in 100 mM potassium phosphate buffer (70 μL, pH 7.4), mixed with a solution (0.5 μL) of the Example compound dissolved in DMSO and preincubated at 37° C. for 5 min. NADPH producing system coenzyme solution (β-nicotinamide adenine dinucleotide phosphate: 5.2 mM, D-glucose-6-phosphate: 13.2 mM, magnesium chloride: 13.2 mM, glucose-6-phosphate dehydrogenase: 1.8 U/mL) 25 μL, and a model substrate (CYP3A4: midazolam 1 mM, CYP2D6: bufuralol 1 mM, CYP2C9: diclofenac 2 mM) 0.5 μL dissolved in DMSO were added to start the reaction. After incubation at 37° C. for 10 min., acetonitrile (200 μL) containing an internal standard substance (propranolol 1 μM) was added and the mixture was centrifuged (room temperature, 3000 rpm, 20 min). The amount of the metabolite produced from each model substrate in the supernatant was measured by high performance liquid chromatography/mass spectrometry (LC/MS/MS) and each CYP enzyme activity was determined. The concentration showing 50% inhibition (IC50) was calculated relative to the enzyme activity without addition of Example compound (DMSO 0.5 μL added) as 100%.
row,IC50 at 10 min [µM],Compound
1,6,O=C(c1cc(Cl)c(O)c(Cl)c1)N1CCCOc2ccccc21 [Example 94]
